Where two headings read alike, the source gives them in different places.
Columns and labels:
[1] = in the form of a sodium salt, cited from earlier work
[2] = Solubility of BCIP / BCI2; type: physicochemical; settings: buffer 1: 1.01 M 2-ethylaminoethanol-HCl/0.505 mM MgCl2 (pH 9.87)
Description: The solubility of BCIP in the buffer 1 is about 70 mM. In order to obtain the optimum concentration of BCIP, first an ALP measurement reagent was prepared by dissolving BCIP in the buffer 1 to give a final concentration of 70 mM, and then the prepared reagent was diluted with the buffer 1 step by step to prepare ALP measurement reagents having BCIP final concentrations of 70 mM, 35 mM, 15 mM, 10 mM, 6.25 mM, 5 mM, 2.5 mM and 1.25 mm, respectively.

O=P(O)(O)Oc1c[nH]c2ccc(Br)c(Cl)c12 [BCIP, 5-bromo-4-chloro-3-indoxyl phosphate]
solubility of BCIP in pure water ([1]; same value expressed in mM): 54 mM
solubility of BCIP in pure water [1]: 20 mg/mL
solubility of BCIP in the buffer 1 [2]: about 70 mM

Reference: patent publication EP1211505A1, “METHOD FOR MEASURING SUBSTANCE AND M[…] TO BE USED IN THE METHOD” (Asahi Kasei Kabushiki Kaisha, priority 1999, dated 2001)
